Measurements: US8952128B2, “Somatostatin-dopamine chimeric analogs” (priority 2012, dated 2015)
Bridge positions count the residues as written; N and C are the ends. Square brackets hold non-standard residues; d marks the D form. Peptide text beside a SMILES is read from it. * marks the point of attachment. X2 = CN1C[C@H](CSCC(=O)*)C[C@@H]2c3cccc4[nH]cc(c34)C[C@H]21; 4Pal = N[C@@H](Cc1ccncc1)C(=O)O; dDab = NCC[C@@H](N)C(=O)O

Columns and labels:
[1] = target: hDRD2 (Homo sapiens (Human), UniProt P14416); test: cell-based; conditions: for Emax: read-out: hDRD2 % Emax ± SEM
Procedure: (§5) The ability of select compounds according to the present invention to activate hSSTR2 and hDRD2 was determined by the intracellular calcium mobilization assay using FLIPR Calcium 4 assay kit (Molecular Devices).
(§6) Cells expressing hSSTR2 or hDRD2 were plated in 384-well microplates in tissue culture media and incubated for 16-24 hours at 37° C. in a humidified atmosphere with 5% CO2. Medium was replaced by loading buffer containing Hank's buffered saline, 20 mM HEPES, 2.5 mM probenecid and Calcium 4 dye, and the plates were incubated at 37° C. for 60 minutes.

[2] = target: hSSTR2 (Homo sapiens (Human), UniProt P30874); test: Intracellular calcium mobilization assay (FLIPR Calcium 4), hSSTR2; format: cell-based; conditions: for Emax: read-out: hSSTR2 % Emax ± SEM;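 as to all read-outs here: agonist activity read as intracellular calcium rise in cells expressing human SSTR2, loaded with a calcium-sensitive dye for 60 min at 37 °C, measured by FLIPR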
Procedure: as §5, §6

[3] = target: hSSTR3 (Homo sapiens (Human), UniProt P32745); test: Somatostatin receptor radioligand binding assay, hSSTR3; conditions: CHO-K1 membranes, [125I-Tyr11]-SRIF-14; read-out: hSSTR3 Ki (nM) ± SEM
Procedure: (§1) The affinities of a test compound for the human somatostatin receptors were determined by radioligand binding assays in CHO-K1 cells stably transfected with each of the human somatostatin receptor subtypes, hSSTR1-5. […] Clonal cell lines stably expressing each of the somatostatin receptors were obtained by transfection into CHO-K1 cells (ATCC) and subsequently selected with culture media containing 0.8 mg/mL of G418 (Life Technologies).
(§2) Membranes for in vitro receptor binding assays were obtained by the following procedures. CHO-K1 cells expressing one of the somatostatin receptors were homogenized in ice-cold buffer with 10 mM Tris-HCl, 5 mM EDTA, 3 mM EGTA, 1 mM phenylmethylsuphonyl fluoride, pH 7.6, using Polytron PT10-35GT (Kinematica) at 18,000 rpm for 30 seconds and centrifuged at 500×g for 10 minutes. The supernatant containing the plasma membranes was centrifuged at 100,000×g for 30 minutes and the pellet was resuspended in buffer containing 20 mM glycine-glycine, 1 mM MgCl2, 250 mM sucrose, pH 7.2, for storage at −80° C.
(§3) For the hSSTR3 and 4 assays, membranes and various concentrations of test compounds were incubated in 96-well plates for 60 minutes at 25° C. with 0.05 nM [^125I-Tyr^11]-SRIF-14 (PerkinElmer Life Science) in 50 mM HEPES, 0.2% BSA, 5 mM MgCl2, 200 KIU/mL trasylol, 0.02 mg/mL bacitracin, and 0.02 mg/mL phenylmethylsuphonyl fluoride, pH 7.5.
(§4) The incubations were terminated by rapid filtration through GF/C glass microfiber filter plates (pre-wet with 0.3% polyethyleneimine and 0.1% BSA) using a 96-well cell harvester (Brandel). Plates were washed six times with 1 mL/well aliquots of ice-cold buffer containing 50 mM Tris buffer, pH 7.7. Specific binding was defined as the total radioligand bound minus the bound in the presence of 1000 nM SRIF-14.

[4] = target: hSSTR4 (Homo sapiens (Human), UniProt P31391); test: Somatostatin receptor radioligand binding assay, hSSTR4; conditions: CHO-K1 membranes, [125I-Tyr11]-SRIF-14; read-out: hSSTR4 Ki (nM) ± SEM
Procedure: as §1, §2, §3, §4

Chain of hSSTR2 (P30874 whole entry): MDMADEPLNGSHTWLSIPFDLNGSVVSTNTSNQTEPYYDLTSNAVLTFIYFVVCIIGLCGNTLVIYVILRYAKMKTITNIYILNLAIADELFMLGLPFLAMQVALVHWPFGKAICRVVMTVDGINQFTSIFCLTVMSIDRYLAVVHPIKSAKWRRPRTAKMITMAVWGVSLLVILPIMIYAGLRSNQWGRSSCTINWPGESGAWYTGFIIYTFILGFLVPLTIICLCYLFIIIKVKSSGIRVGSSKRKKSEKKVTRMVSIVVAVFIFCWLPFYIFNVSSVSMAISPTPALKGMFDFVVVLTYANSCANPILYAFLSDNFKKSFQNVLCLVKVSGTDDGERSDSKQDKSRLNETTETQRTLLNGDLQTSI
Chain of hSSTR3 (P32745 whole entry): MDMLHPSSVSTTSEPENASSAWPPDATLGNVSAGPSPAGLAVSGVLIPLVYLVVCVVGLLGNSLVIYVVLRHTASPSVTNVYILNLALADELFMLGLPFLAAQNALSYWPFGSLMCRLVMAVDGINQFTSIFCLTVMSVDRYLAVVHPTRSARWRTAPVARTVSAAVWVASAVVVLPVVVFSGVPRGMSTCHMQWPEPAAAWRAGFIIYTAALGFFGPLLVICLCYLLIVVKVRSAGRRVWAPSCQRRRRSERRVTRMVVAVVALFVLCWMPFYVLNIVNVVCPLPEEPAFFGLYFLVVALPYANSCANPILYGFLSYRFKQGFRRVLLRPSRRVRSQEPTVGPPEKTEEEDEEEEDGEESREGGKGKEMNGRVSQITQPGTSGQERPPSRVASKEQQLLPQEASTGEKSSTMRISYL
Chain of hSSTR4 (P31391 whole entry): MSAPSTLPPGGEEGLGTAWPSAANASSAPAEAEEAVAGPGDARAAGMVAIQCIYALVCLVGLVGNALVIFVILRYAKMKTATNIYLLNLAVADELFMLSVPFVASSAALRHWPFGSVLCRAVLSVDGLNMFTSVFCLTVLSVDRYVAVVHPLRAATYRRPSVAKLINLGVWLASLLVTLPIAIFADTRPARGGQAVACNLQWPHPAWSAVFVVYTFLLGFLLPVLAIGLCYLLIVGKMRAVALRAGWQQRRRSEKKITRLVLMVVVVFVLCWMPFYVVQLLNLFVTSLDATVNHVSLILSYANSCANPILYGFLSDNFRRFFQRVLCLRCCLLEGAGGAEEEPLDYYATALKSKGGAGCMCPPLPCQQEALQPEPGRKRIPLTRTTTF

C[C@@H](O)[C@@H]1NC(=O)[C@H](CCCCN)NC(=O)[C@@H](Cc2c[nH]c3ccccc23)NC(=O)[C@H](Cc2ccncc2)NC(=O)[C@H](Cc2ccccc2)NC(=O)[C@H](CCCNC(=N)N)NC(=O)[C@H](NC[C@H](CCCCNC(=O)CSC[C@@H]2C[C@@H]3c4cccc5[nH]cc(c45)C[C@H]3N(C)C2)NC(=O)CSC[C@@H]2C[C@@H]3c4cccc5[nH]cc(c45)C[C@H]3N(C)C2)CCCCNC(=O)[C@H](Cc2ccc(O)cc2)NC1=O [Compound 8, Dop1-Lys(Dop1)-psi(CH2NH)-cyclo(DLys-Arg-Phe-4Pal-DTrp-Lys-Thr-Tyr)]
EC50 [1]: 18 ± 4.1 nM | EC50 [2]: 29.8 ± 10.5 nM | improvement in % Emax over Reference Compound C ([2]; calcium mobilization): statistically significant improvement | Emax [2]: 98.8 ± 2.6%

C[C@@H](O)[C@@H]1NC(=O)[C@H](CCCCN)NC(=O)[C@@H](Cc2c[nH]c3ccccc23)NC(=O)[C@H](Cc2ccncc2)NC(=O)[C@H](Cc2ccccc2)NC(=O)[C@H](CCCNC(=N)N)NC(=O)[C@H](NC[C@H](CCCCNC(=O)CSC[C@@H]2C[C@@H]3c4cccc5[nH]cc(c45)C[C@H]3N(C)C2)NC(=O)CSC[C@@H]2C[C@@H]3c4cccc5[nH]cc(c45)C[C@H]3N(C)C2)CCCCNC(=O)[C@H](Cc2ccccc2)NC1=O [Compound 9, Dop1-Lys(Dop1)-psi(CH2NH)-cyclo(DLys-Arg-Phe-4Pal-DTrp-Lys-Thr-Phe)]
EC50 [1]: 15.5 ± 3.7 nM | EC50 [2]: 22.2 ± 5.5 nM | improvement in % Emax over Reference Compound C ([2]; calcium mobilization): statistically significant improvement | Emax [2]: 98.4 ± 1.6%

C[C@@H](O)[C@@H]1NC(=O)[C@H](CCCCN)NC(=O)[C@@H](Cc2c[nH]c3ccccc23)NC(=O)[C@H](Cc2ccccc2)NC(=O)[C@H](Cc2ccccc2)NC(=O)[C@H](CCCNC(=N)N)NC(=O)[C@H](NCCS(=O)(=O)C[C@@H]2C[C@@H]3c4cccc5[nH]cc(c45)C[C@H]3N(C)C2)CCCCNC(=O)[C@H](Cc2ccc(F)cc2)NC1=O [Compound 10, Dop1(SO2)-psi(CH2NH)-cyclo(DLys-Arg-Phe-Phe-DTrp-Lys-Thr-4FPhe)]
Ki [3]: 27.9 nM | Ki [4]: 20.6 nM | Emax [2]: 84.8 ± 13%

C[C@@H](O)[C@@H]1NC(=O)[C@H](CCCCN)NC(=O)[C@@H](Cc2c[nH]c3ccccc23)NC(=O)[C@H](Cc2ccncc2)NC(=O)[C@H](Cc2ccccc2)NC(=O)[C@H](CCCNC(=N)N)NC(=O)[C@H](NCC[S@+]([O-])C[C@@H]2C[C@@H]3c4cccc5[nH]cc(c45)C[C@H]3N(C)C2)CCCCNC(=O)[C@H](Cc2ccc(O)cc2)NC1=O [Compound 11, Dop1[(R)SO]-psi(CH2NH)-cyclo(DLys-Arg-Phe-4Pal-DTrp-Lys-Thr-Tyr)]
Ki [3]: 30.9 ± 11.7 nM | Ki [4]: 2.1 ± 0.4 nM | Emax [2]: 92.3 ± 4.6%

C[C@@H](O)[C@@H]1NC(=O)[C@H](CCCCN)NC(=O)[C@@H](Cc2c[nH]c3ccccc23)NC(=O)[C@H](Cc2ccncc2)NC(=O)[C@H](Cc2ccccc2)NC(=O)[C@H](CCCNC(=N)N)NC(=O)[C@H](NCCS(=O)(=O)C[C@@H]2C[C@@H]3c4cccc5[nH]cc(c45)C[C@H]3N(C)C2)CCCCNC(=O)[C@H](Cc2ccc(O)cc2)NC1=O [Compound 20, Dop1(SO2)-psi(CH2NH)-cyclo(DLys-Arg-Phe-4Pal-DTrp-Lys-Thr-Tyr)]
EC50 [1]: 7.4 ± 1.5 nM | EC50 [2]: 0.7 ± 0.1 nM | Emax [2]: 100.2 ± 0.9%

C[C@@H](O)[C@@H]1NC(=O)[C@H](CCCCN)NC(=O)[C@@H](Cc2c[nH]c3ccccc23)NC(=O)[C@H](Cc2ccncc2)NC(=O)[C@H](Cc2ccccc2)NC(=O)[C@H](CCCNC(=N)N)NC(=O)[C@H](NC(=O)CSC[C@@H]2C[C@@H]3c4cccc5[nH]cc(c45)C[C@H]3N(C)C2)CCCCNC(=O)[C@H](Cc2ccccc2)NC1=O [Compound 24, Dop1-cyclo(DLys-Arg-Phe-4Pal-DTrp-Lys-Thr-Phe)] (X2-[dK]RF[4Pal][dW]KTF; lactam 1-C)
EC50 [1]: 37.3 ± 6.4 nM | improvement in EC50 over Reference Compound A ([2]; Student's t-test, one-tailed, p <0.05): statistically significant improvement | EC50 value lower than that for Reference Compound A ([2]; calcium mobilization, Tables IV and VI): about 9 fold

C[C@@H](O)[C@@H]1NC(=O)[C@H](CCCCN)NC(=O)[C@@H](Cc2c[nH]c3ccccc23)NC(=O)[C@H](Cc2ccccc2)NC(=O)[C@H](Cc2ccccc2)NC(=O)[C@H](CCCNC(=N)N)NC(=O)[C@H](NC(=O)[C@@H](Cc2ccc(O)cc2)NC(=O)CSC[C@@H]2C[C@@H]3c4cccc5[nH]cc(c45)C[C@H]3N(C)C2)CCCCNC(=O)[C@H](Cc2ccccc2)NC1=O [Compound 37, Dop1-DTyr-cyclo(DLys-Arg-Phe-Phe-DTrp-Lys-Thr-Phe)] (X2-[dY][dK]RFF[dW]KTF; lactam 2-C)
Emax [1]: 93.7 ± 4.3% | Emax [2]: 85.5 ± 6.7%

C[C@@H](O)[C@@H]1NC(=O)[C@H](CCCCN)NC(=O)[C@@H](Cc2c[nH]c3ccccc23)NC(=O)[C@H](Cc2ccccc2)NC(=O)[C@H](Cc2ccccc2)NC(=O)[C@H](CCCNC(=N)N)NC(=O)[C@H](NC[C@@H](Cc2ccc(O)cc2)NC(=O)CSC[C@@H]2C[C@@H]3c4cccc5[nH]cc(c45)C[C@H]3N(C)C2)CCCCNC(=O)[C@H](Cc2ccccc2)NC1=O [Compound 41, Dop1-DTyr-psi(CH2NH)-cyclo(DLys-Arg-Phe-Phe-DTrp-Lys-Thr-Phe)]
EC50 [1]: 62.6 nM | EC50 [2]: 29.6 nM | Emax [2]: 104%

C[C@@H](O)[C@@H]1NC(=O)[C@H](CCCCN)NC(=O)[C@@H](Cc2c[nH]c3ccccc23)NC(=O)[C@H](Cc2ccccc2)NC(=O)[C@H](Cc2ccccc2)NC(=O)[C@H](CCCNC(=N)N)NC(=O)[C@H](NC[C@H](Cc2ccc(O)cc2)NC(=O)CCN(C[C@@H]2C[C@@H]3c4cccc5[nH]cc(c45)C[C@H]3N(C)C2)S(C)(=O)=O)CCCCNC(=O)[C@H](Cc2ccc(F)cc2)NC1=O [Compound 42, [N-(D-6-methyl-8β-ergolinylmethyl)-N-(methylsulfonyl)]-aminopropionyl-Tyr-psi(CH2NH)-cyclo(DLys-Arg-Phe-Phe-DTrp-Lys-Thr-4FPhe)]
Emax [1]: 94.5 ± 0.3% | Emax [2]: 78.6 ± 2.3%

C[C@@H](O)[C@@H]1NC(=O)[C@H](CCCCN)NC(=O)[C@@H](Cc2c[nH]c3ccccc23)NC(=O)[C@H](Cc2ccccc2)NC(=O)[C@H](Cc2ccccc2)NC(=O)[C@H](CCCNC(=N)N)NC(=O)[C@H](NC[C@H](CCCCNC(=O)CSC[C@@H]2C[C@@H]3c4cccc5[nH]cc(c45)C[C@H]3N(C)C2)NC(=O)CSC[C@@H]2C[C@@H]3c4cccc5[nH]cc(c45)C[C@H]3N(C)C2)CCCCNC(=O)[C@H](Cc2ccc(F)cc2)NC1=O [Compound 47, Dop1-Lys(Dop1)-psi(CH2NH)-cyclo(DLys-Arg-Phe-Phe-DTrp-Lys-Thr-4FPhe)]
EC50 [1]: 46.6 ± 12.2 nM | EC50 [2]: 77.5 ± 19 nM | improvement in % Emax over Reference Compound C ([2]; calcium mobilization): statistically significant improvement | Emax [2]: 96.2 ± 5.9%

C[C@@H](O)[C@@H]1NC(=O)[C@H](CCCCN)NC(=O)[C@@H](Cc2c[nH]c3ccccc23)NC(=O)[C@H](Cc2ccccc2)NC(=O)[C@H](Cc2ccccc2)NC(=O)[C@H](CCCNC(=N)N)NC(=O)[C@H](NC(=O)CSC[C@@H]2C[C@@H]3c4cccc5[nH]cc(c45)C[C@H]3N(C)C2)CCNC(=O)[C@H](Cc2ccccc2)NC1=O [Reference Compound A, Dop1-cyclo(DDab-Arg-Phe-Phe-DTrp-Lys-Thr-Phe), reference compound] (X2-[dDab]RFF[dW]KTF; lactam 1-C)
Emax [1]: 59.7 ± 7% | Emax [2]: 86.2 ± 7%

C[C@@H](O)[C@@H]1NC(=O)[C@H](CCCCN)NC(=O)[C@@H](Cc2c[nH]c3ccccc23)NC(=O)[C@H](Cc2ccccc2)NC(=O)[C@H](Cc2ccccc2)NC(=O)[C@H](CCCNC(=N)N)NC(=O)[C@H](NC(=O)[C@H](Cc2ccc(O)cc2)NC(=O)CSC[C@@H]2C[C@@H]3c4cccc5[nH]cc(c45)C[C@H]3N(C)C2)CCNC(=O)[C@H](Cc2ccccc2)NC1=O [Reference Compound B, Dop1-Tyr-cyclo(DDab-Arg-Phe-Phe-DTrp-Lys-Thr-Phe), reference compound] (X2-Y[dDab]RFF[dW]KTF; lactam 2-C)
Emax [1]: 92.8 ± 6.6% | Emax [2]: 66.7 ± 5.8%

C[C@@H](O)[C@@H]1NC(=O)[C@H](CCCCN)NC(=O)[C@@H](Cc2c[nH]c3ccccc23)NC(=O)[C@H](Cc2ccccc2)NC(=O)[C@H](Cc2ccccc2)NC(=O)[C@H](CCCNC(=N)N)NC(=O)[C@H](NC(=O)[C@H](CCCCNC(=O)CSC[C@@H]2C[C@@H]3c4cccc5[nH]cc(c45)C[C@H]3N(C)C2)NC(=O)CSC[C@@H]2C[C@@H]3c4cccc5[nH]cc(c45)C[C@H]3N(C)C2)CCNC(=O)[C@H](Cc2ccccc2)NC1=O [Reference Compound C, Dop1-Lys(Dop1)-cyclo(DDab-Arg-Phe-Phe-DTrp-Lys-Thr-Phe), reference compound] (X2-K(X2)[dDab]RFF[dW]KTF; lactam 2-C)
EC50 [1]: 112 ± 39.2 nM | EC50 [2]: 68.7 ± 40.8 nM
